One test deals with Moraxella catarrhalis. Description: Antibacterial activity against Moraxella catarrhalis BC-3531 by micro-broth method. Type of test: functional.
The test system of a further test is Enterococcus faecalis. Description: Antibacterial activity against Enterococcus faecalis MG2 EF1 by micro-broth method. Type of test: functional.
The next test relates to Streptococcus pneumoniae. Description: Antibacterial activity against Streptococcus pneumoniae SV1 SP3 by micro-broth method. The test is classed as functional.
The next test concerns Haemophilus influenzae. Description: Antibacterial activity against Heamophilus influenzae HI3542 by microbroth method. The test is classed as functional.
A further test concerns Staphylococcus aureus. Description: Antibacterial activity against Staphylococcus aureus UC76 SA1 by micro-broth method. Type of test: functional.
The test system of the next test is Escherichia coli. Description: Inhibition of transcription and translation activity in Escherichia coli by luciferase reporter assay. Type of test: functional, organism-based.
For a further test, the system named is Streptococcus pyogenes. Description: Antibacterial activity against Streptococcus pyogenes C203 SP1-1 by micro-broth method. Type of test: functional.

Converted amounts (≈) assume the structure as drawn. Some results are limits rather than exact numbers.

On to `CC(=O)NC[C@H]1CN(c2ccc3c(c2)CCCc2c(-c4cccnc4)n[nH]c2-3)C(=O)O1`, for which the MIC in the test with Moraxella catarrhalis was 2 µg/mL (≈ 4.79 µM); with Enterococcus faecalis it was 0.5 µg/mL (≈ 1.2 µM); with Streptococcus pneumoniae, 0.125 µg/mL (≈ 0.299 µM); against Haemophilus influenzae, 4 µg/mL (≈ 9.58 µM); against Staphylococcus aureus it was 1 µg/mL (≈ 2.4 µM); against Streptococcus pyogenes, 0.25 µg/mL (≈ 0.599 µM). Besides, the IC50 with Escherichia coli worked out at 1000 nM.

Take `CC(=O)NC[C@H]1CN(c2ccc3c(c2)CCCc2c(-c4ccoc4)n[nH]c2-3)C(=O)O1`: the MIC against Moraxella catarrhalis was determined as 1 µg/mL (≈ 2.46 µM); in the test on Enterococcus faecalis, 0.25 µg/mL (≈ 0.615 µM); with Streptococcus pneumoniae it was 0.25 µg/mL (≈ 0.615 µM); with Haemophilus influenzae, 4 µg/mL (≈ 9.84 µM); in the test with Staphylococcus aureus, 0.5 µg/mL (≈ 1.23 µM); against Streptococcus pyogenes it was 0.125 µg/mL (≈ 0.308 µM). Further, the IC50 in the test with Escherichia coli worked out at 700 nM.

Take `CC(=O)NC[C@H]1CN(c2ccc3c(c2)CCCc2c(-c4ccno4)n[nH]c2-3)C(=O)O1`: the MIC was 1 µg/mL (≈ 2.45 µM) with Moraxella catarrhalis; 0.125 µg/mL (≈ 0.307 µM) in the test with Enterococcus faecalis; less than 0.06 µg/mL in the test on Streptococcus pneumoniae; 2 µg/mL (≈ 4.91 µM) in the test on Haemophilus influenzae; 0.25 µg/mL (≈ 0.614 µM) with Staphylococcus aureus; less than 0.06 µg/mL in the test with Streptococcus pyogenes. In addition, the half-inhibitory concentration (IC50) with Escherichia coli worked out at 760 nM.

For `CC(=O)NC[C@H]1CN(c2ccc3c(c2)CCCc2c(C)n[nH]c2-3)C(=O)O1`, the MIC in the test with Moraxella catarrhalis worked out at 4 µg/mL (≈ 11.3 µM); in the test on Enterococcus faecalis, 1 µg/mL (≈ 2.82 µM); against Streptococcus pneumoniae it was 0.5 µg/mL (≈ 1.41 µM); against Haemophilus influenzae, 4 µg/mL (≈ 11.3 µM); in the test on Staphylococcus aureus, 1 µg/mL (≈ 2.82 µM); with Streptococcus pyogenes, 0.5 µg/mL (≈ 1.41 µM). Moreover, in the test with Escherichia coli, the concentration for half-maximal inhibition (IC50) was found to be 1200 nM.

As for `CCc1n[nH]c2c1CCCc1cc(N3C[C@H](CNC(C)=O)OC3=O)ccc1-2`, the MIC against Moraxella catarrhalis turned out to be 1 µg/mL (≈ 2.71 µM); in the test on Enterococcus faecalis, 0.25 µg/mL (≈ 0.679 µM); against Streptococcus pneumoniae, 0.125 µg/mL (≈ 0.339 µM); in the test with Haemophilus influenzae, 4 µg/mL (≈ 10.9 µM); against Staphylococcus aureus, 0.5 µg/mL (≈ 1.36 µM); with Streptococcus pyogenes, 0.125 µg/mL (≈ 0.339 µM). Besides, 1100 nM corresponded to half-maximal inhibition with Escherichia coli (IC50).

As for `CCCc1n[nH]c2c1CCCc1cc(N3C[C@H](CNC(C)=O)OC3=O)ccc1-2`, the MIC in the test with Moraxella catarrhalis was 4 µg/mL (≈ 10.5 µM); with Enterococcus faecalis it was 1 µg/mL (≈ 2.61 µM); with Streptococcus pneumoniae, 0.5 µg/mL (≈ 1.31 µM); with Haemophilus influenzae it was 16 µg/mL (≈ 41.8 µM); against Staphylococcus aureus it was 2 µg/mL (≈ 5.23 µM); in the test on Streptococcus pyogenes it was 0.5 µg/mL (≈ 1.31 µM). The molecule further registered a half-inhibitory concentration (IC50) with Escherichia coli of 3100 nM.

With `CC(=O)NC[C@H]1CN(c2ccc3c(c2)CCCc2c(-c4ccccc4)n[nH]c2-3)C(=O)O1`, the MIC in the test with Moraxella catarrhalis was 2 µg/mL (≈ 4.8 µM); in the test on Enterococcus faecalis, 0.5 µg/mL (≈ 1.2 µM); against Streptococcus pneumoniae it was 0.5 µg/mL (≈ 1.2 µM); in the test with Haemophilus influenzae, 8 µg/mL (≈ 19.2 µM); with Staphylococcus aureus it was 0.5 µg/mL (≈ 1.2 µM); in the test with Streptococcus pyogenes, 0.5 µg/mL (≈ 1.2 µM). In addition, half-maximal inhibition in the test with Escherichia coli (IC50) was put at 2000 nM.

As for `CC(=O)NC[C@H]1CN(c2ccc3c(c2)CCCc2c(-c4ccc(O)cc4)n[nH]c2-3)C(=O)O1`, the MIC against Moraxella catarrhalis stood at 2 µg/mL (≈ 4.62 µM); with Enterococcus faecalis, 0.5 µg/mL (≈ 1.16 µM); in the test on Streptococcus pneumoniae, 0.25 µg/mL (≈ 0.578 µM); with Haemophilus influenzae, 4 µg/mL (≈ 9.25 µM); in the test on Staphylococcus aureus, 1 µg/mL (≈ 2.31 µM); against Streptococcus pyogenes, 2 µg/mL (≈ 4.62 µM). The concentration for half-maximal inhibition (IC50) in the test with Escherichia coli is 1700 nM.

For the molecule `CC(=O)NC[C@H]1CN(c2ccc3c(c2)CCCc2c(-c4ccc(C#N)cc4)n[nH]c2-3)C(=O)O1`, the MIC against Moraxella catarrhalis came out at 1 µg/mL (≈ 2.27 µM); against Enterococcus faecalis, 0.25 µg/mL (≈ 0.566 µM); in the test on Streptococcus pneumoniae, 0.25 µg/mL (≈ 0.566 µM); in the test with Haemophilus influenzae, 4 µg/mL (≈ 9.06 µM); against Staphylococcus aureus, 0.5 µg/mL (≈ 1.13 µM); against Streptococcus pyogenes, 0.125 µg/mL (≈ 0.283 µM). Moreover, inhibition in the test with Escherichia coli was half-maximal at 1400 nM (IC50).

With `CC(=O)NC[C@H]1CN(c2ccc3c(c2)CCCc2c(C(F)(F)F)n[nH]c2-3)C(=O)O1`, the MIC stood at 1 µg/mL (≈ 2.45 µM) with Moraxella catarrhalis; 1 µg/mL (≈ 2.45 µM) with Enterococcus faecalis; 0.25 µg/mL (≈ 0.612 µM) against Streptococcus pneumoniae; 4 µg/mL (≈ 9.79 µM) with Haemophilus influenzae; 1 µg/mL (≈ 2.45 µM) with Staphylococcus aureus; 1 µg/mL (≈ 2.45 µM) against Streptococcus pyogenes. Besides, in the test on Escherichia coli, inhibition was half-maximal at 1300 nM (IC50).

In the case of `CC(=O)NC[C@H]1CN(c2ccc3c(c2)CCCc2c(C(C)C)n[nH]c2-3)C(=O)O1`, the MIC against Moraxella catarrhalis amounted to 8 µg/mL (≈ 20.9 µM); in the test on Enterococcus faecalis it was 2 µg/mL (≈ 5.23 µM); against Streptococcus pneumoniae, 0.5 µg/mL (≈ 1.31 µM); against Haemophilus influenzae, 16 µg/mL (≈ 41.8 µM); in the test with Staphylococcus aureus it was 2 µg/mL (≈ 5.23 µM); in the test with Streptococcus pyogenes it was 1 µg/mL (≈ 2.61 µM). This molecule also gave a 50% inhibitory concentration (IC50) in the test with Escherichia coli of 4300 nM.

For the molecule `CC(=O)NC[C@H]1CN(c2ccc3c(c2)CCCc2c(-c4ccc(F)cc4)n[nH]c2-3)C(=O)O1`, the MIC against Moraxella catarrhalis came out at 1 µg/mL (≈ 2.3 µM); in the test on Enterococcus faecalis it was 0.5 µg/mL (≈ 1.15 µM); with Streptococcus pneumoniae, 0.25 µg/mL (≈ 0.575 µM); against Haemophilus influenzae it was 8 µg/mL (≈ 18.4 µM); in the test with Staphylococcus aureus it was 0.5 µg/mL (≈ 1.15 µM); with Streptococcus pyogenes, 1 µg/mL (≈ 2.3 µM). For the same molecule, the concentration for half-maximal inhibition (IC50) in the test on Escherichia coli was found to be 1500 nM.

Consider `CC(=O)NC[C@H]1CN(c2ccc3c(c2)CCCc2c(-c4ccncc4)n[nH]c2-3)C(=O)O1`, for which the MIC against Moraxella catarrhalis turned out to be 2 µg/mL (≈ 4.79 µM); against Enterococcus faecalis, 1 µg/mL (≈ 2.4 µM); against Streptococcus pneumoniae, 0.25 µg/mL (≈ 0.599 µM); in the test on Haemophilus influenzae, 4 µg/mL (≈ 9.58 µM); with Staphylococcus aureus it was 2 µg/mL (≈ 4.79 µM); against Streptococcus pyogenes, 0.25 µg/mL (≈ 0.599 µM). Moreover, half-maximal inhibition in the test on Escherichia coli (IC50) was put at 1000 nM.

For `CC(=O)NC[C@H]1CN(c2ccc3c(c2)CCCc2c(-c4cc(C)on4)n[nH]c2-3)C(=O)O1`, the MIC against Moraxella catarrhalis stood at 2 µg/mL (≈ 4.75 µM); in the test with Enterococcus faecalis, 0.5 µg/mL (≈ 1.19 µM); in the test with Streptococcus pneumoniae it was 0.25 µg/mL (≈ 0.593 µM); in the test on Haemophilus influenzae, 4 µg/mL (≈ 9.49 µM); with Staphylococcus aureus, 0.5 µg/mL (≈ 1.19 µM); in the test with Streptococcus pyogenes it was 0.25 µg/mL (≈ 0.593 µM). In the test with Escherichia coli, this molecule came in with a half-maximal inhibitory concentration (IC50) of 900 nM.
